Counter-ions that a name gives are not always drawn. Like-named read-outs stand apart in the source and are kept apart here.
How the values were obtained:
[1] = tested on: mouse S180 sarcoma model; test: Inhibition of tumor growth in vivo (mouse S180 sarcoma model); set-up: species or system male ICR mice; settings: for Average tumor weight: Mean ± SD, n 10
Method: The mice used in the experiment were male ICR mice of SPF grade, weighing 20 g±2 g, purchased from Beijing Vital River Laboratory Animal Technology Co., Ltd., and raised in an animal barrier of the Experimental Animal Department of Capital Medical University.
The specific method included: drugs were administered to tumor-forming mice by group for 7 consecutive days, a length of the tumor was measured every other day to calculate a tumor volume. 24 h after the last administration, the mice were weighed, anesthetized with diethyl ether, and eyeballs were removed to collect blood; the obtained whole blood was centrifuged at 1,000 rpm for 10 min, and a serum was absorbed for later use. The mice were sacrificed by neck dislocation, and the tumor mass and various organs were stripped and weighed (it was ensured that the operation was done as soon as possible and the stripping was complete and clean). The tumor inhibition rate was calculated by formula b, the results were shown in Table 2 and FIG. 2; and by calculating a viscera-weight ratio of each organ, and it was analyzed whether the test compound had obvious physiological effects on the mouse organs.

[2] = tested on: HCT116 (human colon cancer cells); test: In vitro anti-tumor cell proliferation activity (MTT method), HCT116; assay type: cell-based; settings: read-out: IC50 values of in vitro anti-cell proliferation activity
Method: (§1) Tested cell lines S180 (mouse ascites tumor cells), LLC (mouse lung cancer cells), A549 (human non-small cell lung cancer cells), HCT116 (human colon cancer cells), U2Os (human osteosarcoma cells), and MCF-7 (human breast cancer cells) each were purchased from Nanjing KeyGen Biotech.
(§2) When preparing a test sample, the test compound was prepared into a sample solution with a concentration of 500 μM (with a final concentration 100 μM) by a PBS buffer containing 0.5% DMSO, which was used for preliminary screening of an anti-cell proliferation experiment in vitro.
(§3) Positive control group: doxorubicin, prepared to a required concentration with PBS buffer containing 0.5% DMSO; negative control group: a PBS buffer containing 0.5% DMSO; blank group: a PBS buffer containing 0.01% DMSO.

[3] = tested on: LLC (mouse lung cancer cells); test: In vitro anti-tumor cell proliferation activity (MTT method), LLC; assay type: cell-based; settings: 48 h, read-out: IC50 values of in vitro anti-cell proliferation activity
Method: as §1, §2, §3

[4] = tested on: A549 (human non-small cell lung cancer cells); test: In vitro anti-tumor cell proliferation activity (MTT method), A549; assay type: cell-based; settings: read-out: IC50 values of in vitro anti-cell proliferation activity
Method: as §1, §2, §3

[5] = tested on: U2Os (human osteosarcoma cells); test: In vitro anti-tumor cell proliferation activity (MTT method), U2Os; assay type: cell-based; settings: 48 h, read-out: IC50 values of in vitro anti-cell proliferation activity
Method: as §1, §2, §3

[6] = tested on: MCF-7 (human breast cancer cells); test: In vitro anti-tumor cell proliferation activity (MTT method), MCF-7; assay type: cell-based; settings: read-out: IC50 values of in vitro anti-cell proliferation activity
Method: as §1, §2, §3

[7] = tested on: S180 (mouse ascites tumor cells); test: In vitro anti-tumor cell proliferation activity (MTT method), S180; assay type: cell-based; settings: read-out: IC50 values of in vitro anti-cell proliferation activity
Method: as §1, §2, §3

[8] = Table 2, 10 μmol/kg, ip, 7 consecutive days
[9] = Table 2, 2 μmol/kg, ip, 7 consecutive days

Compound | Tumor Inhibition Rate [1, 8] [%] | Average tumor weight [1, 8] [g] | IC50 ([2]; HCT116, 48 h, Mean ± SD) [µM] | IC50 ([3]; LLC, Mean ± SD) [µM] | IC50 ([4]; A549, 48 h, Mean ± SD) [µM] | IC50 ([5]; U2Os, Mean ± SD) [µM] | IC50 ([6]; MCF-7, 48 h, Mean ± SD) [µM] | IC50 ([7]; S180, 48 h, Mean ± SD) [µM] | further results
CN(C)c1ccc2cc(C(=O)NC(CCCNC(=N)CCl)C(=O)NCc3ccccc3)ccc2c1 (stereo not shown) [YW3-56, N-(1-(benzylamino)-5-(2-chlorooxalimide)-1-oxopentan-2-yl)-6-(dimethylamino)-2-naphthylamide, reference compound] | 44.39 | 0.994 ± 0.310 | – | – | – | – | – | – | Tumor Inhibition Rate ([1]; Table 3, 10 μmol/kg, iv): 44.38%; Average tumor weight ([1]; Table 3, 10 μmol/kg, iv): 0.954 ± 0.298 g
CS(=O)(=O)NCCNc1ccc([N+](=O)[O-])c2nonc12 [ZD-C, NBD-N-(2-aminoethyl)methanesulfonamide] | 29.46 | 1.260 ± 0.466 | > 100 | > 100 | > 100 | > 100 | > 100 | > 100 | Average tumor weight compared with Vehicle group (one-way analysis of variance) ([1]; 10 μmol/kg, ip): different from that of Vehicle group
O=C1NCCC[C@@H]1Nc1ccc([N+](=O)[O-])c2nonc12 [ZD-D, NBD-Orn(cycto)] | 25.77 | 1.326 ± 0.318 | > 100 | > 100 | > 100 | > 100 | > 100 | > 100 | –
NCCC[C@H](Nc1ccc([N+](=O)[O-])c2nonc12)C(=O)NCc1ccccc1 [ZD-E, (S)-5-amino-N-benzyl-2-((7-nitro-2,1,3-benzoxadiazol-4-yl)amino)pentaneamide] | 25.82 | 1.326 ± 0.685 | – | – | – | – | – | – | IC50 ([2]; Homo sapiens, HCT-116, 48 h): 49.7 ± 4.17 µM; IC50 ([3]; Mus musculus): > 100 µM; IC50 ([4]; Homo sapiens, A549, 48 h): > 100 µM; IC50 ([5]; Homo sapiens, U2OS): 60.5 ± 0.969 µM; IC50 ([6]; Homo sapiens, MCF7, 48 h): 85.2 ± 6.1 µM; IC50 ([7]; Mus musculus, S-180, 48 h): 66 ± 2.61 µM
COc1cccc2c1C(=O)c1c(O)c3c(c(O)c1C2=O)C[C@@](O)(C(=O)CO)C[C@@H]3O[C@H]1C[C@H](N)[C@H](O)[C@H](C)O1 [DOX, doxorubicin, reference compound] | – | – | – | – | – | – | – | – | IC50 ([2]; Homo sapiens, HCT-116, HCT116, 48 h, Mean ± SD): 0.375 ± 0.108 µM; IC50 ([3]; Mus musculus, LLC, Mean ± SD): 0.19 ± 0.095 µM; IC50 ([4]; Homo sapiens, A549, 48 h, Mean ± SD): 0.229 ± 0.052 µM; Tumor Inhibition Rate [1, 9]: 51.80%; Average tumor weight [1, 9]: 0.861 ± 0.462 g; IC50 ([5]; Homo sapiens, U2Os, Mean ± SD): 1.2 ± 0.034 µM; IC50 ([6]; Homo sapiens, MCF7, MCF-7, 48 h, Mean ± SD): 1.03 ± 0.188 µM; IC50 ([7]; Mus musculus, S-180, S180, 48 h, Mean ± SD): 0.49 ± 0.092 µM
NCCCC[C@H](Nc1ccc([N+](=O)[O-])c2nonc12)C(=O)NCc1ccccc1 [ZD-F, NBD-Lys(HCl)-NBzl] | – | – | > 100 | > 100 | > 100 | > 100 | > 100 | > 100 | –
